# From patent US20240245677A1, “SELECTED COMPOUNDS FOR TARGETED DEGRADATION OF BRD9” (C4 THERAPEUTICS, INC., priority 2021, published 2024)
# Legend:
# [1] = Crystallization by addition of anti-solvent; assay type: physicochemical; settings: for Comments: form after seeding: add Pattern G as seeds, slurry for 5 days
# Method: Based on approximate solubility results, about 20 mg of Compound 1 free form Pattern E was dissolved in the minimal amount of good solvent. Anti-solvent was added into the obtained solutions slowly. Precipitates were collected by centrifuged. The solid part (wet cake) were investigated by XRPD.
# in vitro = settings: plasma; for % Bound / % Remaining at 3 hours: 3 h, 2 µM
# Method: Plasma protein binding (PPB) of Compound 1 was evaluated in plasma from mice, rats, dogs, cynomolgus monkeys, and humans using ultracentrifugation.
# Frozen plasma from CD-1 mice, Sprague-Dawley rats, beagle dogs, cynomolgus monkeys, and humans was purchased and stored at ≤−30° C. On the day of study, plasma samples of CD-1 mice, Sprague-Dawley rats, beagle dogs, cynomolgus monkeys and humans were thawed under running cold tap water and centrifuged to remove any particulates.
# For the internal standard, telmisartan, a 1 mg/mL solution was prepared by dissolving 1.4 mg of telmisartan in 1.4 mL of DMSO, and stored at 4° C.
# The 10 mM stock solution of each test compound was used to prepare 400 μM intermediate stocks in methanol. Then, a 2 μM working stock of each test compound was prepared for plasma from each species (mouse, rat, dog, monkey, and human) by spiking 12 μL of the 400 μM intermediate stock for each test compound into 2400 μL of thawed and prepared plasma from a test species.
# 400 μL of blank plasma for each species was transferred to a 0.5 mL Beckman tube (Part No. 343776, Beckman Coulter Life Sciences, Indianapolis, IN, USA) and centrifuged for 3 hours at 627000×g at 37° C. The supernatant was removed and kept at room temperature.
# To prepare for ultracentrifugation, the rotor of the centrifuge was placed into an incubator and warmed up to 37° C. before centrifugation. The vacuum switch of the OPTIMA™ MAX-TL Ultracentrifuge (Beckman Coulter Life Sciences, Indianapolis, IN, USA) was turned on and the vacuum was reduced to less than 10 microns to warm up the system. The ultracentrifuge's parameters were set to the following: Temperature—37° C.; Time—3 hours; and Speed—627000×g. For each species and each test compound, 2.4 mL of working stock was mixed and pre-incubated for 45 minutes at 37° C. Then, 60 μL was separated and precipitated with 200 μL of acetonitrile containing internal standard and labeled as (TO), and 0.4 mL (triplicates) were transferred to Beckman 2 mL tubes (Part No. 344625, Beckman Coulter Life Sciences, Indiana, IN, USA).
# For each species and each test compound, the triplicate 0.4 mL sample tubes were centrifuged for 3 hours at 627000×g at 37° C. […] At 45 minutes, 60 μL was separated, precipitated with 200 μL of acetonitrile containing internal standard and labelled as (T45). After completion of 3 hours, 60 μL of incubated samples were separated, precipitated with acetonitrile containing internal standard, and labeled as (T3).
# After completing the 3 hours of centrifugation, 30 μl of the top fraction of supernatant from each sample tube was removed (free fraction) and precipitated with acetonitrile containing internal standard (labeled as top sample).
# After removing 30 μL of the top fraction, remaining top and bottom layer were mixed thoroughly to make a uniform mixture. From this mixture, 30 μL of bottom sample was collected and precipitated with acetonitrile containing internal standard (labelled as bottom sample).
# Matrix matching was done for crashed stability samples (TO, T45 and T3 samples) by adding 30 μL of a 50:50 mixture of blank plasma supernatant and phosphate-buffered saline (PBS), and for top and bottom samples, by adding 30 μL of blank plasma (kept at room temperature).
# All the stability samples and centrifuged samples were vortexed at 1000 rpm for 5 minutes and centrifuged at 4000 rpm for 10 minutes. Supernatant from each sample was separated, diluted 2-fold with water, and analyzed in LC-MS/MS.
# Samples (supernatant-free fraction and total plasma) were analyzed by LCMS-MS (no standards).
smiles,measurement,setting,value
"COc1cc(-c2cn(C)c(=O)c(C)c2C)cc(OC)c1CN1CC[C@H](N2CCN(c3ccc(N[C@H]4CCC(=O)NC4=O)cc3F)CC2)C(F)(F)C1 [Compound 1, (S)-3-((4-(4-((S)-1-(2,6-dimethoxy-4-(1,4,5-trimethyl-6-oxo-1,6-dihydropyridin-3-yl)benzyl)-3,3-difluoropiperidin-4-yl)piperazin-1-yl)-3-fluorophenyl)amino)-piperidine-2,6-dione]",Comments: form after seeding,"[1]; 2-MeTHF/110, Heptane/200",for 5 days: Pattern G
same,Comments: form after seeding,"[1]; DCM/200, Heptane/400",Pattern F
same,Comments: form after seeding,"[1]; THF/40, Heptane/160",for 5 days: Pattern G
same,XRPD,"[1]; solvent 1,4-dioxane/200, anti-solvent Heptane/400",Pattern F
same,Comments,"[1]; solvent 2-MeTHF/200, anti-solvent MTBE/200",Oil-like sample
same,XRPD,"[1]; solvent DCM/200, anti-solvent MTBE/400",Pattern F
same,"fraction unbound at 3 h, 2 µM","in vitro; CD-1, mouse",0.0339
same,% Bound,"in vitro; CD-1, mouse",96.61%
same,% Remaining at 3 hours,"in vitro; CD-1, mouse",84.69%
same,"fraction unbound at 3 h, 2 µM","in vitro; Sprague-Dawley, rat",0.0971
same,% Bound,"in vitro; Sprague-Dawley, rat",90.29%
same,% Remaining at 3 hours,"in vitro; Sprague-Dawley, rat",88.73%
same,"fraction unbound at 3 h, 2 µM","in vitro; beagle, dog",0.0646
same,% Bound,"in vitro; beagle, dog",93.54%
same,% Remaining at 3 hours,"in vitro; beagle, dog",99.38%
same,"fraction unbound at 3 h, 2 µM",in vitro; human,0.067
same,% Remaining at 3 hours,in vitro; human,66.87%
same,"fraction unbound at 3 h, 2 µM",in vitro; monkey,0.0514
same,% Bound,in vitro; monkey,94.86%
same,% Remaining at 3 hours,in vitro; monkey,99.14%
